Reference: patent US5438052A, “Cephalosporin derivatives” (Hoffmann-La Roche Inc., priority 1991, dated 1995)
In brackets after ≈: the same amount, converted by molar mass. Read-outs that look alike come from different tables or passages of the source.

Columns and labels:
C. freundii 902 = test: Minimum inhibitory concentration in vitro, agar dilution method; type: cell-based; conditions: Citrobacter freundii
Description: (§1) 1. Minimum Inhibitory Concentration in vitro
(§2) The activities ascertained, minimum inhibitory concentration (MIC) in μg/ml, are compiled in Table 1 hereinafter: […]

E. cloacae 908R = test: as above; type: cell-based; conditions: Enterobacter cloacae
Description: as §1, §2

E. cloacae 908SSi = test: as above; type: cell-based; conditions: Enterobacter cloacae
Description: as §1, §2

E. cloacae P99 = test: as above; type: cell-based; conditions: Enterobacter cloacae
Description: as §1, §2

E. coli 25922 [1] = test: as above; type: cell-based; conditions: Escherichia coli
Description: as §1, §2

K. oxytoca 1082 = test: as above; type: cell-based; conditions: Klebsiella oxytoca
Description: as §1, §2

K. pneumoniae 418 = test: as above; type: cell-based; conditions: Klebsiella pneumoniae
Description: as §1, §2

P. aeruginosa 27853 = test: as above; type: cell-based; conditions: Pseudomonas aeruginosa
Description: as §1, §2

P. aeruginosa 799/61 = test: as above; type: cell-based; conditions: Pseudomonas aeruginosa
Description: as §1, §2

P. aeruginosa 799/WT = test: as above; type: cell-based; conditions: Pseudomonas aeruginosa
Description: as §1, §2

P. aeruginosa BA = test: as above; type: cell-based; conditions: Pseudomonas aeruginosa
Description: as §1, §2

P. aeruginosa MK1184 = test: as above; type: cell-based; conditions: Pseudomonas aeruginosa
Description: as §1, §2

P. mirabilis 2117 = test: as above; type: cell-based; conditions: Proteus mirabilis
Description: as §1, §2

P. vulgaris 1028 = test: as above; type: cell-based; conditions: Proteus vulgaris
Description: as §1, §2

S. aureus 6538 = test: as above; type: cell-based; conditions: Staphylococcus aureus
Description: as §1, §2

S. marcescens 69438 = test: as above; type: cell-based; conditions: Serratia marcescens
Description: as §1, §2

S. pneumoniae BA = test: as above; type: cell-based; conditions: Streptococcus pneumoniae; S. pneumoniae BA, agar dilution; read-out: MIC
Description: as §1, §2

S. pyogenes 15 = test: as above; type: cell-based; conditions: Streptococcus pyogenes
Description: as §1, §2

E. coli 25922 [2] = test: Experimental systemic septicaemia in the mouse; type: in vivo; conditions: 96 h
Protocol: (§3) 2. Experimental systemic septicaemia in the mouse
(§4) An experimental systemic septicaemia was produced in albino mice weighing 16-20 g by intraperitoneally injecting into the experimental animals a sample of a dilute culture of the test organism which had been grown overnight. The sample administered is calculated such that the dosage administered is about 5-100 times greater than the dosage which is required to kill 50% of untreated experimental animals within 48 hours. The bacteria were injected as a suspension in the culture broth. Groups of 5 experimental animals each were used not only for the control, but also for the treatment for each dosage tested. The products in accordance with the invention were administered subcutaneously as a suspension in Tween 80 (2%), whereby the concentrations were chosen such that each experimental animal received 500 μl per administration. The respective concentrations were administered twice, namely 1 and 3 hours after the infection (in the case of P. aeruginosa three times, namely 1, 3 and 5 hours after the infection). The ED50 is that dosage which protects 50% of the experimental animals and was calculated by means of the Probit method on the basis of the survial rate after 4 days following the infection. The ED50 values in mg/kg s.c. (subcutaneous) for representatives of the class of substance in accordance with the invention are given in Table 2 hereinafter.

[3] = test system: Pseudomonas aeruginosa BA; test: Experimental systemic septicaemia in the mouse; type: in vivo; conditions: sc, 96 h
Protocol: as §3, §4

[4] = C. freundii 902, agar dilution, read-out: MIC
[5] = E. cloacae 908R, agar dilution, read-out: MIC
[6] = E. cloacae 908SSi, agar dilution, read-out: MIC
[7] = E. coli 25922, agar dilution, read-out: MIC
[8] = K. oxytoca 1082, agar dilution, read-out: MIC
[9] = K. pneumoniae 418, agar dilution, read-out: MIC
[10] = P. aeruginosa 27853, agar dilution, read-out: MIC
[11] = P. aeruginosa 799/61, agar dilution, read-out: MIC
[12] = P. aeruginosa 799/WT, agar dilution, read-out: MIC
[13] = P. aeruginosa BA, agar dilution, read-out: MIC
[14] = P. aeruginosa MK1184, agar dilution, read-out: MIC
[15] = P. mirabilis 2117, agar dilution, read-out: MIC
[16] = P. vulgaris 1028, agar dilution, read-out: MIC
[17] = S. aureus 6538, agar dilution, read-out: MIC
[18] = S. marcescens 69438, agar dilution, read-out: MIC
[19] = S. pyogenes 15, agar dilution, read-out: MIC
[20] = Escherichia coli, sc, E. coli 25922, albino mice, s.c. 1 and 3 hours after infection, survival after 4 days, read-out: ED50
[21] = P. aeruginosa BA, albino mice, s.c. 1, 3 and 5 hours after infection, survival after 4 days, read-out: ED50

| SMILES | MIC (C. freundii 902; [4]) [µg/mL] | MIC (E. cloacae 908R; [5]) [µg/mL] | MIC (E. cloacae 908SSi; [6]) [µg/mL] | MIC (E. cloacae P99) [µg/mL] | MIC (E. coli 25922 [1]; [7]) [µg/mL] | MIC (K. oxytoca 1082; [8]) [µg/mL] | MIC (K. pneumoniae 418; [9]) [µg/mL] | MIC (P. aeruginosa 27853; [10]) [µg/mL] | MIC (P. aeruginosa 799/61; [11]) [µg/mL] | MIC (P. aeruginosa 799/WT; [12]) [µg/mL] | MIC (P. aeruginosa BA; [13]) [µg/mL] | MIC (P. aeruginosa MK1184; [14]) [µg/mL] | MIC (P. mirabilis 2117; [15]) [µg/mL] | MIC (P. vulgaris 1028; [16]) [µg/mL] | MIC (S. aureus 6538; [17]) [µg/mL] | MIC (S. marcescens 69438; [18]) [µg/mL] | MIC (S. pneumoniae BA) [µg/mL] | MIC (S. pyogenes 15; [19]) [µg/mL] | ED50 (E. coli 25922 [2]; [20]) [mg/kg] | ED50 [3, 21] [mg/kg] | other results |
| --- | --- | --- | --- | --- | --- | --- | --- | --- | --- | --- | --- | --- | --- | --- | --- | --- | --- | --- | --- | --- | --- |
| CC(C)(O/N=C(\C(=O)N[C@@H]1C(=O)N2C(C(=O)O)=C(CS(=O)(=O)c3ccc(O)c(O)c3)CS[C@H]12)c1csc(N)n1)C(=O)NO [Example 21, (6R,7R)-7-[(Z)-2-(2-amino-4-thiazolyl)-2-[[(1-hydroxycarbamoyl)-1-methylethoxy]imino]acetamido]-3-[[(3,4-dihydroxyphenyl)sulphonyl]methyl]-8-oxo-5-thia-1-azabicyclo[4.2.0]oct-2-ene-2-carboxylic acid] | 4 (≈ 6.09 µM) | 8 (≈ 12.2 µM) | 8 (≈ 12.2 µM) | 16 (≈ 24.4 µM) | 1 (≈ 1.52 µM) | 1 (≈ 1.52 µM) | 0.5 (≈ 0.761 µM) | 8 (≈ 12.2 µM) | 0.25 (≈ 0.381 µM) | 8 (≈ 12.2 µM) | 8 (≈ 12.2 µM) | > 32 | 1 (≈ 1.52 µM) | 2 (≈ 3.05 µM) | > 32 | 1 (≈ 1.52 µM) | 8 (≈ 12.2 µM) | 16 (≈ 24.4 µM) | < 0.3 | 0.39 |  |
| Nc1nc(/C(=N/OCc2nc(=O)c(O)c[nH]2)C(=O)N[C@@H]2C(=O)N3C(C(=O)O)=C(CSc4cc(-c5ccc(O)c(O)c5)nc5ccnn45)CS[C@H]23)cs1 [Example 13, (6R,7R)-7-[(Z)-2-(2-amino-4-thiazolyl)-2-[[(1,4-dihydro-5-hydroxy-4-oxo-2-pyrimidinyl)methoxy]imino]acetamido]-3-[[[5-(3,4-dihydroxyphenyl)pyrazolo[1,5-a]pyrimidin-7-yl]thio]methyl]-8-oxo-5-thia-1-azabicyclo[4.2.0]oct-2-ene-2-carboxylic acid] | 0.25 (≈ 0.327 µM) | 1 (≈ 1.31 µM) | 4 (≈ 5.23 µM) | 8 (≈ 10.5 µM) | 0.06 (≈ 0.0785 µM) | 0.06 (≈ 0.0785 µM) | 0.06 (≈ 0.0785 µM) | 4 (≈ 5.23 µM) | 0.06 (≈ 0.0785 µM) | 1 (≈ 1.31 µM) | 2 (≈ 2.62 µM) | 8 (≈ 10.5 µM) | 0.06 (≈ 0.0785 µM) | 0.06 (≈ 0.0785 µM) | 16 (≈ 20.9 µM) | 0.12 (≈ 0.157 µM) |  | 1 (≈ 1.31 µM) |  | 4 |  |
| Cc1cc(SCC2=C(C(=O)O)N3C(=O)[C@@H](NC(=O)/C(=N\OC(C)(C)C(=O)NO)c4csc(N)n4)[C@H]3SC2)n2nc(CNS(=O)(=O)c3ccc(O)c(O)c3)nc2n1 [Example 1, (6R,7R)-7-[(Z)-2-(2-amino-4-thiazolyl)-2-[[(1-hydroxycarbamoyl)-1-methylethoxy]imino]acetamido]-3-[[[2-[(3,4-dihydroxybenzenesulphonamido)methyl]-5-methyl-s-triazolo[1.5-a]pyrimidin-7-yl]thio]methyl]-8-oxo-5-thia-1-azabicyclo[4.2.0]oct-2-ene-2-carboxylic acid] | 1 (≈ 1.18 µM) | 16 (≈ 18.8 µM) | 4 (≈ 4.71 µM) | 32 (≈ 37.7 µM) | 0.25 (≈ 0.294 µM) | 0.5 (≈ 0.588 µM) | 0.12 (≈ 0.141 µM) | 4 (≈ 4.71 µM) | 0.25 (≈ 0.294 µM) | 0.5 (≈ 0.588 µM) | 0.5 (≈ 0.588 µM) | 4 (≈ 4.71 µM) | 0.12 (≈ 0.141 µM) | 0.5 (≈ 0.588 µM) | 16 (≈ 18.8 µM) | 0.25 (≈ 0.294 µM) |  | 4 (≈ 4.71 µM) |  |  |  |
| Nc1nc(/C(=N/OCc2ccc(O)c(O)c2)C(=O)N[C@@H]2C(=O)N3C(C(=O)O)=C(CS(=O)(=O)c4ccc(O)c(O)c4)CS[C@H]23)cs1 [Example 23, (6R,7R)-7-[(Z)-2-(2-amino-4-thiazolyl)-2-[[(3,4-dihydroxybenzyl)oxy]imino]acetamido]-3-[[(3,4-dihydroxyphenyl)sulphonyl]methyl]-8-oxo-5-thia-1-azabicyclo[4.2.0]oct-2-ene-2-carboxylic acid] | 4 (≈ 5.9 µM) | > 32 | 16 (≈ 23.6 µM) | > 32 | 0.25 (≈ 0.369 µM) | 16 (≈ 23.6 µM) | 0.12 (≈ 0.177 µM) | 32 (≈ 47.2 µM) | 0.12 (≈ 0.177 µM) | 1 (≈ 1.48 µM) | 32 (≈ 47.2 µM) | > 32 | 1 (≈ 1.48 µM) | 2 (≈ 2.95 µM) | 16 (≈ 23.6 µM) | 2 (≈ 2.95 µM) | 4 (≈ 5.9 µM) | 4 (≈ 5.9 µM) |  |  |  |
| CC(C)(O/N=C(\C(=O)N[C@@H]1C(=O)N2C(C(=O)O)=C(CSc3nnc(-c4ccc(O)c(O)c4)o3)CS[C@H]12)c1csc(N)n1)C(=O)NNC(=O)c1ccc(O)c(O)c1 [Example 45, (6R,7R)-7-[(Z)-2-(2-amino-4-thiazolyl)-2-[[1-[3-(3,4-dihydroxybenzoyl)carbazoyl]-1-methylethoxy]imino]acetamido]-3-[[[5-(3,4-dihydroxyphenyl)-1,3,4-oxadiazol-2-yl]thio]methyl]-8-oxo-5-thia-1-azabicyclo[4.2.0]oct-2-ene-2-carboxylic acid] | 0.06 (≈ 0.0725 µM) | > 32 | 2 (≈ 2.42 µM) | > 32 | 0.06 (≈ 0.0725 µM) | 0.06 (≈ 0.0725 µM) | 0.06 (≈ 0.0725 µM) | 0.12 (≈ 0.145 µM) | 0.64 (≈ 0.773 µM) | 0.06 (≈ 0.0725 µM) | 0.06 (≈ 0.0725 µM) | 1 (≈ 1.21 µM) |  |  | 16 (≈ 19.3 µM) | 0.06 (≈ 0.0725 µM) | 0.25 (≈ 0.302 µM) | 1 (≈ 1.21 µM) | 0.13 | 2.1 |  |
| Cc1cc(SCC2=C(C(=O)[O-])N3C(=O)[C@@H](NC(=O)/C(=N\OCS(=O)(=O)c4ccc(O)c(O)c4)c4csc(N)n4)[C@H]3SC2)n2nc(CS(=O)(=O)c3ccc(O)c(O)c3)nc2n1.[Na+] [Example 10, (6R,7R)-7-[(Z)-2-(2-amino-4-thiazolyl)-2-[[[(3,4-dihydroxyphenyl)sulphonyl]methoxy]imino]acetamido]-3-[[[2-[[(3,4-dihydroxyphenyl)sulphonyl]methyl]-5-methyl-s-triazolo[1,5-a]pyrimidin-7-yl]thio]methyl]-8-oxo-5-thia-1-azabicyclo[4.2.0]oct-2-ene-2-carboxylic acid sodium salt (1:1)] |  |  |  | 16 |  |  |  |  |  |  |  |  |  |  |  |  |  |  |  |  | MIC (C. freundii 902; 902): 0.12 µg/mL; MIC (E. cloacae 908R; 908R): 2 µg/mL; MIC (E. cloacae 908SSi; 908SSI): 8 µg/mL; MIC (E. coli 25922 [1]; 25922): < 0.1 µg/mL; MIC (K. oxytoca 1082; 1082): 4 µg/mL; MIC (K. pneumoniae 418; 418): < 0.1 µg/mL; MIC (P. aeruginosa 27853; 27853): < 0.1 µg/mL; MIC (P. aeruginosa 799/61; 799/61): < 0.1 µg/mL; MIC (P. aeruginosa 799/WT; 799/WT): < 0.1 µg/mL; MIC (P. aeruginosa BA): < 0.1 µg/mL; MIC (P. aeruginosa MK1184; MK1184): < 0.1 µg/mL; MIC (P. mirabilis 2117; 2117): < 0.1 µg/mL; MIC (P. vulgaris 1028; 1028): < 0.1 µg/mL; MIC (S. aureus 6538; 6538): 32 µg/mL; MIC (S. marcescens 69438; 69438): 0.12 µg/mL; MIC (S. pyogenes 15; 15): 4 µg/mL; ED50 (E. coli 25922 [2]; Escherichia coli, 25922, sc): < 0.1 mg/kg; ED50 [3]: 0.15 mg/kg |
